US10793553B2, “TLR7/8 antagonists and uses thereof” (Merck Patent GmbH, priority 2017, dated 2020)

How the values were obtained:
TLR7 = molecular target: T1, TLR7 (Homo sapiens, UniProt Q9NYK1); experiment: HEK TLR7 Cell Assay; type: cell-based; settings: TLR7/NFKb HEK cells, R848 agonist 10 uM final, Steady-Glo readout
T1 construct: expressed in transfected cells; host or cells: HEK cells carrying TLR7 and an NFkB luciferase reporter
T1 sequence (Q9NYK1 27-1049): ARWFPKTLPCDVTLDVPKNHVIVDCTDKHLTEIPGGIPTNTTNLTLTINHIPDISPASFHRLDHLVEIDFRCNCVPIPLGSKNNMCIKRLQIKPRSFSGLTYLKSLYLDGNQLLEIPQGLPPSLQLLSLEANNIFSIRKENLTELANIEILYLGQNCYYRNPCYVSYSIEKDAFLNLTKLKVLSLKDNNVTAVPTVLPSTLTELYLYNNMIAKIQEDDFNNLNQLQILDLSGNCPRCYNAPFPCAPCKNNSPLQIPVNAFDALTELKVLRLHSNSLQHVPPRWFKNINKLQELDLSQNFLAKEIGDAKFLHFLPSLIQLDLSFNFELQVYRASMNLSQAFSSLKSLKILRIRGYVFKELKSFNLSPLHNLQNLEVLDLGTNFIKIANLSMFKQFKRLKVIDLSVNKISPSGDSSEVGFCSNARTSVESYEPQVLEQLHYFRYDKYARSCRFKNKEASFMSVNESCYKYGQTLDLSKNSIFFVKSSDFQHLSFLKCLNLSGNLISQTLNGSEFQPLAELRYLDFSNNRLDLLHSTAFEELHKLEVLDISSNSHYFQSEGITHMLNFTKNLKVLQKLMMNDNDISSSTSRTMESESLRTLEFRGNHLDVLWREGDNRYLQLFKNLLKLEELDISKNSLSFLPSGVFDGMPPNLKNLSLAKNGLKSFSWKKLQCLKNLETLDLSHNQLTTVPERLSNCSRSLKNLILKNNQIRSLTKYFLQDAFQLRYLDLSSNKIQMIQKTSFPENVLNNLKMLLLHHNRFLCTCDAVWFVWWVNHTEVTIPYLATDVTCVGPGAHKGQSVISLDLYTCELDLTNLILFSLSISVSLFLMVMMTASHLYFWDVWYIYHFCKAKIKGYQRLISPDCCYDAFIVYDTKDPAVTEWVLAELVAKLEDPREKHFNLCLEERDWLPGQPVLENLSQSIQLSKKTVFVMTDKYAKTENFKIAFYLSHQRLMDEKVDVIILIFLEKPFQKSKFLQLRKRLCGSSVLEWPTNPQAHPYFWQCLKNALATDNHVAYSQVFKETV
Procedure: Example 24: HEK TLR7 Cell Assay
(§1) Into 384 CulturePlates (Corning 3707) was placed 5000 c/w of TLR7/NFKb HEK cells in 30 uL DMEM without Phenol red (gibco #31053) and 10% FCS-HI, 2 mM L-Glutamine, 1% Pen/Strept. The cells are incubated for 24 h at 37 degrees Celsius, and 10% carbon dioxide. Dispense 3 uL of controls, standards, and compounds to wells, incubate for 30 min then add 3 uL of R848 (10 uM final concentration) agonist in 20 mM Hepes. Incubate for 5 hours and then allow to stand at room temperature for 15 min. Add 10 uL of Steady-Glo substrate reagent and shake assay plate for 5 min at 1500 rpm. Let the assay plate sit for 30 min at room temperature and then read plate on EnVision.

TLR8 = molecular target: T2, TLR8 (Homo sapiens, UniProt Q9NR97); experiment: HEK TLR8 Cell Assay; type: cell-based; settings: TLR8/NFKb HEK cells, R848 agonist 30 uM final, Steady-Glo readout
T2 construct: expressed in transfected cells; host or cells: HEK cells carrying TLR8 and an NFkB luciferase reporter
T2 sequence (Q9NR97 27-1041): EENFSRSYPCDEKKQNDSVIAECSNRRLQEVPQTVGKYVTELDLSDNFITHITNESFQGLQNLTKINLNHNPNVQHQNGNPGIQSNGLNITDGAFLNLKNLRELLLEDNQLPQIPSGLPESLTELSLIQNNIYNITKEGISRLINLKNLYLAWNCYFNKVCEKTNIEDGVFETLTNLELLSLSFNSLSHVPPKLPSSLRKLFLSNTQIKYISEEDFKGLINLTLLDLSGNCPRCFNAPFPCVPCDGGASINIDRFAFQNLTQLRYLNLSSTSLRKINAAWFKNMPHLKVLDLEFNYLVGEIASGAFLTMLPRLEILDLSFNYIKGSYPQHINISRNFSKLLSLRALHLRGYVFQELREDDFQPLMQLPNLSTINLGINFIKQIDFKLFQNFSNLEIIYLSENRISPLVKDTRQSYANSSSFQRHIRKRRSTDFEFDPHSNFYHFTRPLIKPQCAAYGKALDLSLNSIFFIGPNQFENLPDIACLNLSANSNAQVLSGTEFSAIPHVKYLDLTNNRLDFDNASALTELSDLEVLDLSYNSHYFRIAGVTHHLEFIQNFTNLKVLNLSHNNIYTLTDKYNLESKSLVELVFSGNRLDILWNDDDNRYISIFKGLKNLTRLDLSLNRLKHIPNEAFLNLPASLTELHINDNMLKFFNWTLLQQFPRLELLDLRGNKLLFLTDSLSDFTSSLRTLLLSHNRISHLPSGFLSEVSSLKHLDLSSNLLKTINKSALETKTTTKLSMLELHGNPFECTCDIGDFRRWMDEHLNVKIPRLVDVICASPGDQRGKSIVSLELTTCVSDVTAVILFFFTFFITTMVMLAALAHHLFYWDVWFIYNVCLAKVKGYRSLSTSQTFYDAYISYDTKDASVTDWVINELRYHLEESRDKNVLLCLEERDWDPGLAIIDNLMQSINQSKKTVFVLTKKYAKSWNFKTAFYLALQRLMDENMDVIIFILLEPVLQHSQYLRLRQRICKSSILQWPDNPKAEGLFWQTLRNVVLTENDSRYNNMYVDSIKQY
Procedure: Example 25: HEK TLR8 Cell Assay
as §1, with “TLR8/NFKb” for “TLR7/NFKb”, “(30” for “(10”

Row | SMILES | IC50 (TLR7) | IC50 (TLR8)
1 | Cc1ccc(N2C[C@@H](C)[C@@H](NC(=O)CC3(F)CCN(C)CC3)C2)c2cccnc12 [Compound 42, 2-(4-fluoro-1-methylpiperidin-4-yl)-N-[(3R,4R)-4-methyl-1-(8-methylquinolin-5-yl)pyrrolidin-3-yl]acetamide] | < 1000 nM | < 1000 nM
2 | C[C@@H]1CN(c2ccc(C#N)c3nccnc23)C[C@@H]1NC(=O)CC1(F)CCN(C)CC1 [Compound 10, N-[(3R,4R)-1-(8-cyanoquinoxalin-5-yl)-4-methylpyrrolidin-3-yl]-2-(4-fluoro-1-methylpiperidin-4-yl)acetamide] | < 1000 nM | < 1000 nM
3 | Cc1ncc(N2C[C@@H](C)[C@@H](NC(=O)CC3CCN(C)CC3)C2)c2cccnc12 [Compound 52, N-[(3R,4R)-4-methyl-1-(8-methyl-[1,7]naphthyridin-5-yl)-pyrrolidin-3-yl]-2-(1-methyl-piperidin-4-yl)-acetamide] | < 1000 nM | > 10000 nM
4 | C[C@@H]1CN(c2ccc(C#N)c3nccnc23)C[C@@H]1N [Compound 1, 8-[(3R,4R)-3-amino-4-methylpyrrolidin-1-yl]quinoxaline-5-carbonitrile] | < 1000 nM | 1000 to 10000 nM
5 | CC(C)[C@@H](O)C(=O)N[C@H]1CN(c2ccc(C#N)c3nccnc23)C[C@H]1C [Compound 16, (2R)—N-[(3R,4R)-1-(8-cyanoquinoxalin-5-yl)-4-methylpyrrolidin-3-yl]-2-hydroxy-3-methylbutanamide] | 1000 to 10000 nM | 1000 to 10000 nM
6 | C[C@@H]1CN(c2ccc(C#N)c3nccnc23)C[C@@H]1NC(=O)CC1CCN(C)C1 (single isomer, unassigned) [Compound 5] | < 1000 nM | < 1000 nM
7 | Cc1ccc(N2C[C@@H](C)[C@@H](NC(=O)[C@H](O)C(C)C)C2)c2cccnc12 [Compound 48, (2R)-2-hydroxy-3-methyl-N-[(3R,4R)-4-methyl-1-(8-methylquinolin-5-yl)pyrrolidin-3-yl]butanamide] | > 10000 nM | > 10000 nM
8 | C[C@@H]1CN(c2ccc(C(F)(F)F)c3ncccc23)C[C@@H]1NC(=O)CC1CCN(C)C1 (single isomer, unassigned) [Compound 21] | < 1000 nM | < 1000 nM
9 | C[C@@H]1CN(c2ccc(C#N)c3nccnc23)C[C@@H]1NC(=O)C(O)C1CC1 (single isomer, unassigned) [Compound 14] | < 1000 nM | 1000 to 10000 nM
10 | C[C@@H]1CN(c2ccc(C#N)c3nccnc23)C[C@@H]1NC(=O)CC1CCN(C)C1 (single isomer, unassigned) [Compound 6] | < 1000 nM | < 1000 nM

Further lines, results first:

Row | IC50 (TLR7) | IC50 (TLR8) | SMILES
11 | 1000 to 10000 nM | 1000 to 10000 nM | Cc1ccc(N2C[C@@H](C)[C@@H](NC(=O)CC3CCN(C)CC3(F)F)C2)c2cccnc12 (single isomer, unassigned) [Compound 44]
12 | 1000 to 10000 nM | > 10000 nM | Cc1cc2c(N3CCC(CNCCN4CCCCC4)C3)ccnc2n1C (centres unmarked) [Compound 55, [1-(1,2-Dimethyl-1H-pyrrolo[2,3-b]pyridin-4-yl)-pyrrolidin-3-ylmethyl]-(2-piperidin-1-yl-ethyl)-amine]
13 | 1000 to 10000 nM | 1000 to 10000 nM | C[C@@H]1CN(c2ccc(C(F)(F)F)c3ncccc23)C[C@@H]1NC(=O)CC1CCN(C)CC1(F)F (single isomer, unassigned) [Compound 27]
14 | < 1000 nM | < 1000 nM | C[C@@H]1CN(c2ccc(C(F)(F)F)c3ncccc23)C[C@@H]1NC(=O)CC1(C)CCN(C)CC1 [Compound 24, 2-(1,4-dimethylpiperidin-4-yl)-N-[(3R,4R)-4-methyl-1-[8-(trifluoromethyl)quinolin-5-yl]pyrrolidin-3-yl]acetamide]
15 | < 1000 nM | < 1000 nM | C[C@@H]1CN(c2ccc(C(F)(F)F)c3ncccc23)C[C@@H]1NC(=O)CC1(F)CCNCC1 [Compound 25, 2-(4-fluoropiperidin-4-yl)-N-[(3R,4R)-4-methyl-1-[8-(trifluoromethyl)quinolin-5-yl]pyrrolidin-3-yl]acetamide]
16 | < 1000 nM | < 1000 nM | C[C@@H]1CN(c2ccc(C(F)(F)F)c3ncccc23)C[C@@H]1NC(=O)CC1CCCN(C)C1 (single isomer, unassigned) [Compound 19]
17 | < 1000 nM | < 1000 nM | C[C@@H]1CN(c2ccc(C(F)(F)F)c3ncccc23)C[C@@H]1NC(=O)CC1CCN(C)C1 (single isomer, unassigned) [Compound 22]
18 | < 1000 nM | 1000 to 10000 nM | Cc1ccc(N2C[C@@H](C)[C@@H](NC(=O)CC3CCN(C)C3)C2)c2cccnc12 (single isomer, unassigned) [Compound 38]
19 | < 1000 nM | < 1000 nM | C[C@@H]1CN(c2ccc(C(F)(F)F)c3ncccc23)C[C@@H]1NC(=O)CC1(F)CCN(C)CC1 [Compound 26, 2-(4-fluoro-1-methylpiperidin-4-yl)-N-[(3R,4R)-4-methyl-1-[8-(trifluoromethyl)quinolin-5-yl]pyrrolidin-3-yl]acetamide]
20 | < 1000 nM | 1000 to 10000 nM | Cc1ccc(N2C[C@@H](C)[C@@H](NC(=O)CC3(C)CCN(C)CC3)C2)c2cccnc12 [Compound 40, 2-(1,4-dimethylpiperidin-4-yl)-N-[(3R,4R)-4-methyl-1-(8-methylquinolin-5-yl)pyrrolidin-3-yl]acetamide]
21 | 1000 to 10000 nM | > 10000 nM | Cc1ccc(N2C[C@@H](C)[C@@H](NC(=O)[C@@H](O)C(C)C)C2)c2cccnc12 [Compound 47, (2S)-2-hydroxy-3-methyl-N-[(3R,4R)-4-methyl-1-(8-methylquinolin-5-yl)pyrrolidin-3-yl]butanamide]
22 | 1000 to 10000 nM | > 10000 nM | Cc1ccc(N2C[C@@H](C)[C@@H](NC(=O)CC3CCN(C)CC3(F)F)C2)c2cccnc12 (single isomer, unassigned) [Compound 43]
